Test results reported in patent publication US9056874B2, “Complement pathway modulators and uses thereof” (NOVARTIS AG, priority 2012, dated 2015).

target: factor B (Homo sapiens, UniProt P00751); test: factor B inhibition assay of Biological Example 1; assay type: biochemical; parameters: CVF-Bb complex prepared from purified cobra venom factor (1 μM), recombinant human complement factor B; made in house; host or cells: drosophila cells (factor B); E. coli (factor D used to form the complex); details: IC50 (nM), assay of Biological Example 1 (Table 1)
Sequence (P00751 260-764 limits assumed): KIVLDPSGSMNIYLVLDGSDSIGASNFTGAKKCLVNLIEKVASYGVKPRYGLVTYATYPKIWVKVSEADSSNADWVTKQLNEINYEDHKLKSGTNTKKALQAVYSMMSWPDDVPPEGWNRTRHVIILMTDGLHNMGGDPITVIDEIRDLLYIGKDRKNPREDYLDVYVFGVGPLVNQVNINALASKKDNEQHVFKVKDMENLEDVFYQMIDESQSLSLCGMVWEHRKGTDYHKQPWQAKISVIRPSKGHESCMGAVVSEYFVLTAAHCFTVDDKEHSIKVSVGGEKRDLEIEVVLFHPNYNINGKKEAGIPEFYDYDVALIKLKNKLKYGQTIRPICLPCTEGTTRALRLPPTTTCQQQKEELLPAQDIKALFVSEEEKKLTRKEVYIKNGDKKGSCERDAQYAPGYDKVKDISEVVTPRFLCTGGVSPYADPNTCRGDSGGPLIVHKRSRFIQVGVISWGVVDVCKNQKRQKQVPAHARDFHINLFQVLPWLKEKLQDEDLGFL
Sequence (Q91132 23-649 partner limits assumed): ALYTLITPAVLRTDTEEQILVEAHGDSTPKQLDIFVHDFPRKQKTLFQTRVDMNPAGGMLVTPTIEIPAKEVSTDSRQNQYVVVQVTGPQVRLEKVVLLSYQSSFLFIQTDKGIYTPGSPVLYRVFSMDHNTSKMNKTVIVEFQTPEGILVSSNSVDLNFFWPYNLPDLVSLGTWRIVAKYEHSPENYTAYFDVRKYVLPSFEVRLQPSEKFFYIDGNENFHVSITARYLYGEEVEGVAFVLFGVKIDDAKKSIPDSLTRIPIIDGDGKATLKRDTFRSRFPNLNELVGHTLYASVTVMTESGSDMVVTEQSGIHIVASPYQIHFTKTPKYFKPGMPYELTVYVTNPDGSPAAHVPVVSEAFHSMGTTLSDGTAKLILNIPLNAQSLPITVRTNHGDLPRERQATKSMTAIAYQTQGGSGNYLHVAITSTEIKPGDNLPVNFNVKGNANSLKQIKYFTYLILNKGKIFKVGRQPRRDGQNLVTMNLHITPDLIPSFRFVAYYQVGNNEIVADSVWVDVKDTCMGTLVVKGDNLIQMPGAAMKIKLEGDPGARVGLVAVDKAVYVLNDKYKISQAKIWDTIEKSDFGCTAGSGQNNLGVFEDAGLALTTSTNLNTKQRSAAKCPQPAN
Sequence (Q91132 733-984 partner limits assumed): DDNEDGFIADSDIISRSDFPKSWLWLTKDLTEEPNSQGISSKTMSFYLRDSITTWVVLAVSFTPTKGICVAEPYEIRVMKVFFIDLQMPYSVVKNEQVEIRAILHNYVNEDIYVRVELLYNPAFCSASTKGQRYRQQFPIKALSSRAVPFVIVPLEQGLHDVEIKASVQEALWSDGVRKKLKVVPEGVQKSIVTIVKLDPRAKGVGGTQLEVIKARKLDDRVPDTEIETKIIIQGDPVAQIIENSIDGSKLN
Sequence (Q91132 1264-1642 partner limits assumed): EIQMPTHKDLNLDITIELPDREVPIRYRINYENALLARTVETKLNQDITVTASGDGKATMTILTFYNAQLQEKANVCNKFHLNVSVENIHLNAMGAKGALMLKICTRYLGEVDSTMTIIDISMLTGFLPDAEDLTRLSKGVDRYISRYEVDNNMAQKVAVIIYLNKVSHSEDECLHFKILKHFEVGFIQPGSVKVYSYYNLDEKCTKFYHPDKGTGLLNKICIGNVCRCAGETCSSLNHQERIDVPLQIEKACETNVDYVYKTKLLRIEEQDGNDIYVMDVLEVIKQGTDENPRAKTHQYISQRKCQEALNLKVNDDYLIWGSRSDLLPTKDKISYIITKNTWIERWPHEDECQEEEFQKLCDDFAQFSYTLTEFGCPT

Row | SMILES | IC50
1 | Cc1cc(C(C)C)c(C(C)(O)c2nc3cc(C#N)ccc3[nH]2)c2cc[nH]c12 (single isomer, unassigned; (-)) [79-B b) (−), (−)-2-(1-hydroxy-1-(5-isopropyl-7-methyl-1H-indol-4-yl)ethyl)-1H-benzo[d]imidazole-5-carbonitrile] | 260 nM
2 | COc1cc(C)c2[nH]ccc2c1C(C)(O)c1nc2cc(C#N)ccc2o1 (racemic) [126-C a), (±)-2-(1-hydroxy-1-(5-methoxy-7-methyl-1H-indol-4-yl)ethyl)benzo[d]oxazole-5-carbonitrile] | 8 nM
3 | Cc1cc(C)c2[nH]cc(C)c2c1C(O)c1nc2cc(C#N)ccc2[nH]1 (racemic) [Example 89-D, (±)-2-(Hydroxy(3,5,7-trimethyl-1H-indol-4-yl)methyl)-1H-benzo[d]imidazole-5-carbonitrile] | 2320 nM
4 | Cc1cc(C2CC2)c(C(N)(c2nc3cc(C#N)ccc3[nH]2)C(F)(F)F)c2cc[nH]c12 (single isomer, unassigned; (+)) [107-D b) (+), (+)-2-(1-amino-1-(5-cyclopropyl-7-methyl-1H-indol-4-yl)-2,2,2-trifluoroethyl)-1H-benzo[d]imidazole-5-carbonitrile] | 50 nM
5 | Cc1cc(C2CC2)c(C(C)(O)c2nc3cc(C#N)ccc3[nH]2)c2cc[nH]c12 (single isomer, unassigned; (-)) [79-C b) (−), (−)-2-(1-(5-cyclopropyl-7-methyl-1H-indol-4-yl)-1-hydroxyethyl)-1H-benzo[d]imidazole-5-carbonitrile] | 6 nM
6 | Cc1cc(C)c2[nH]ccc2c1C(N)c1nc2ccc(C#N)cc2[nH]1 (single isomer, unassigned; (-)) [95-B b) (−), (−)-2-(amino(5,7-dimethyl-1H-indol-4-yl)methyl)benzo[d]imidazole-5-carbonitrile] | 480 nM
7 | Cc1cc(CO)c2[nH]ccc2c1Cc1nc2cc(C#N)ccc2[nH]1 [Example 113-F, 2-((7-(Hydroxymethyl)-5-methyl-1H-indol-4-yl)methyl)-1H-benzo[d]imidazole-5-carbonitrile] | 9600 nM
8 | Cc1cc(Br)c(C(O)c2nc3cc(C#N)ccc3[nH]2)c2cc[nH]c12 (stereo not shown) [Example 67-F] | 2000 nM
9 | Cc1cc(C)c2[nH]ccc2c1C(O)(c1nc2cc(C#N)ccc2[nH]1)C1CC1 (stereo not shown) [79-H a)] | 110 nM
10 | Cc1cc(C(C)C)c(C(C)(N)c2nc3cc(C#N)ccc3[nH]2)c2cc[nH]c12 (stereo not shown) [102-E a)] | 60 nM
11 | Cc1cc(Br)c(C(N)(c2nc3cc(C#N)ccc3[nH]2)C(F)(F)F)c2cc[nH]c12 (single isomer, unassigned; (-)) [105-B b) (−), (−)-2-(1-amino-1-(5-bromo-7-methyl-1H-indol-4-yl)-2,2,2-trifluoroethyl)-1H-benzo[d]imidazole-5-carbonitrile] | 20 nM
12 | COc1cc(F)c2[nH]ccc2c1Cc1nc2cc(C#N)ccc2[nH]1 [Example 21-B, 2-((7-Fluoro-5-methoxy-1H-indol-4-yl)methyl)-1H-benzo[d]imidazole-5-carbonitrile] | 3140 nM
13 | CCOCc1cc(C)c2[nH]ccc2c1C(O)c1nc2cc(C#N)ccc2[nH]1 (single isomer, unassigned; (+)) [66-D b) (+), (+)-2-((5-(ethoxymethyl)-7-methyl-1H-indol-4-yl)(hydroxy)methyl)-1H-benzo[d]imidazole-5-carbonitrile] | 30400 nM
14 | Cc1cc(C2CC2)c(C(O)c2nc3cc(C#N)ccc3[nH]2)c2cc[nH]c12 (stereo not shown) [Example 67-B] | 260 nM
15 | COc1cc(C)c2[nH]ccc2c1C(O)(c1nc2cc(C#N)ccc2o1)C(F)(F)F (single isomer, unassigned; (+)) [128-B b) (+), (+)-2-(2,2,2-trifluoro-1-hydroxy-1-(5-methoxy-7-methyl-1H-indol-4-yl)ethyl)benzo[d]oxazole-5-carbonitrile] | 1990 nM
16 | COc1cc(C)c2[nH]ccc2c1C(C)(O)c1nc2cc(C#N)ccc2[nH]1 (racemic) [26-C b) (+), (+)-2-(1-hydroxy-1-(5-methoxy-7-methyl-1H-indol-4-yl)ethyl)-1H-benzo[d]imidazole-5-carbonitrile] | 50 nM
17 | COc1cc(C)c2c(c1C(C)(OC)c1nc3cc(C#N)ccc3[nH]1)CCN2 (single isomer, unassigned; (+)) [124 b) (+), (+)-2-(1-methoxy-1-(5-methoxy-7-methylindolin-4-yl)ethyl)-1H-benzo[d]imidazole-5-carbonitrile] | 490 nM

Row | SMILES | IC50
18 | COc1cc(C)c2[nH]ccc2c1C(O)(c1nc2cc(C#N)ccc2o1)C(F)(F)F (single isomer, unassigned; (-)) [128-B b) (−), (−)-2-(2,2,2-trifluoro-1-hydroxy-1-(5-methoxy-7-methyl-1H-indol-4-yl)ethyl)benzo[d]oxazole-5-carbonitrile] | 3 nM
19 | CNC(c1nc2cc(C#N)ccc2[nH]1)c1c(C)cc(C)c2[nH]ccc12 (racemic) [Example 98-B, (±)-2-((5,7-Dimethyl-1H-indol-4-yl)(methylamino)methyl)-1H-benzo[d]imidazole-5-carbonitrile] | 560 nM
20 | Cc1cc(CC(C)C)c(C(C)(O)c2nc3cc(C#N)ccc3[nH]2)c2cc[nH]c12 (single isomer, unassigned; (+)) [79-D b) (+), (+)-2-(1-hydroxy-1-(5-isobutyl-7-methyl-1H-indol-4-yl)ethyl)-1H-benzo[d]imidazole-5-carbonitrile] | 2240 nM
21 | Cc1cc(OCC2CC2)c(C(C)(O)c2nc3cc(C#N)ccc3[nH]2)c2cc[nH]c12 (single isomer, unassigned; (-)) [26-G b) (−), (−)-2-(1-(5-(cyclopropylmethoxy)-7-methyl-1H-indol-4-yl)-1-hydroxyethyl)-1H-benzo[d]imidazole-5-carbonitrile] | 4380 nM
22 | Cc1cc(OC(F)F)c(C(C)(O)c2nc3cc(C#N)ccc3[nH]2)c2cc[nH]c12 (racemic) [6-B b) (−), (−)-2-(1-(5-(difluoromethoxy)-7-methyl-1H-indol-4-yl)-1-hydroxyethyl)-1H-benzo[d]imidazole-5-carbonitrile] | 110 nM
23 | COC(c1nc2cc(C#N)ccc2[nH]1)(c1c(S(C)(=O)=O)cc(C)c2[nH]ccc12)C(F)(F)F (single isomer, unassigned; (+)) [15-D b) (+), (+)-2-(2,2,2-trifluoro-1-methoxy-1-(7-methyl-5-(methylsulfonyl)-1H-indol-4-yl)ethyl)-1H-benzo[d]imidazole-5-carbonitrile] | 32700 nM
24 | CCCc1cc(C)c2[nH]ccc2c1C(C)(O)c1nc2cc(C#N)ccc2[nH]1 (racemic) [79-B a) 2nd compound, (±)-2-(1-hydroxy-1-(7-methyl-5-propyl-1H-indol-4-yl)ethyl)-1H-benzo[d]imidazole-5-carbonitrile] | 150 nM
25 | Cc1cc(OC(F)F)c(C(O)c2nc3cc(C#N)ccc3[nH]2)c2cc[nH]c12 (single isomer, unassigned; (+)) [3-B b) (+), (+)-2-((5-(difluoromethoxy)-7-methyl-1H-indol-4-yl)(hydroxy)methyl)-1H-benzo[d]imidazole-5-carbonitrile] | 820 nM
26 | Cc1cc(C2CC2)c(C(N)(c2nc3cc(C#N)ccc3[nH]2)C(F)(F)F)c2cc[nH]c12 (single isomer, unassigned; (-)) [107-D b) (−), (−)-2-(1-amino-1-(5-cyclopropyl-7-methyl-1H-indol-4-yl)-2,2,2-trifluoroethyl)-1H-benzo[d]imidazole-5-carbonitrile] | 8 nM
27 | C=C(c1nc2cc(C#N)ccc2[nH]1)c1c(CC)cc(C)c2[nH]ccc12 [Example 114-C, 2-(1-(5-Ethyl-7-methyl-1H-indol-4-yl)vinyl)-1H-benzo[d]imidazole-5-carbonitrile] | 70 nM
28 | COCCOc1cc(C)c2[nH]ccc2c1Cc1nc2cc(C#N)ccc2[nH]1 [Example 20-F] | 5570 nM
29 | COc1cc(C)c2[nH]ccc2c1C(c1nc2cc(C#N)ccc2[nH]1)(N(C)C)C(F)(F)F (racemic) [Example 38-C, (±)-2-(1-(Dimethylamino)-2,2,2-trifluoro-1-(5-methoxy-7-methyl-1H-indol-4-yl)ethyl)-1H-benzo[d]imidazole-5-carbonitrile] | 490 nM
30 | CCc1cc(C)c2[nH]cc3c2c1C(O)(c1nc2cc(C#N)ccc2[nH]1)CC3 (single isomer, unassigned) [94 b) (tr = 4.5 min), (+) or (−)-2-(6-ethyl-5-hydroxy-8-methyl-1,3,4,5-tetrahydrobenzo[cd]indol-5-yl)-1H-benzo[d]imidazole-5-carbonitrile] | 400 nM
31 | COc1cc(C)c2[nH]ccc2c1C(C)(N)c1nc2cc(C#N)ccc2[nH]1 (single isomer, unassigned; (+)) [41-B b) (+), (+)-2-(1-amino-1-(5-methoxy-7-methyl-1H-indol-4-yl)ethyl)-1H-benzo[d]imidazole-5-carbonitrile] | 190 nM
32 | Cc1cc(C2CC2)c(C(C)(N)c2nc3cc(C#N)ccc3[nH]2)c2cc[nH]c12 (single isomer, unassigned; (+)) [102-D b) (+), (+)-2-(1-amino-1-(5-cyclopropyl-7-methyl-1H-indol-4-yl)ethyl)-1H-benzo[d]imidazole-5-carbonitrile] | 6 nM
33 | CNC(c1nc2cc(C#N)ccc2[nH]1)(c1c(S(C)(=O)=O)cc(C)c2[nH]ccc12)C(F)(F)F (single isomer, unassigned; (-)) [16-B b) (−), (−)-2-(2,2,2-trifluoro-1-(7-methyl-5-(methylsulfonyl)-1H-indol-4-yl)-1-(methylamino)ethyl)-1H-benzo[d]imidazole-5-carbonitrile] | 180 nM

same assay, conditions: assay of Biological Example 1 (Table 1)

Row | SMILES | IC50
34 | Cc1cc(OC(C)C)c(C(C)(O)c2nc3cc(C#N)ccc3[nH]2)c2cc[nH]c12 (single isomer, unassigned; (+)) [26-E b) (+), (+)-2-(1-hydroxy-1-(5-isopropoxy-7-methyl-1H-indol-4-yl)ethyl)-1H-benzo[d]imidazole-5-carbonitrile] | 170 nM
